Source: patent US20120115852A1, “HETEROCYCLIC COMPOUNDS AS AUTOTAXIN INHIBITORS” (Merck Patent Gesellschaft Mit Beschrankter Haftung, priority 2009, published 2012)

Biological target: T1, recombinant autotaxin (Homo sapiens, UniProt Q13822)
T1 construct: made in house; host or cells: Hi5 insect cells (baculovirus)
Assay: Autotaxin test (enzyme test), Amplex Red fluorescence with LPC substrate
Format: biochemical
Conditions: autotaxin inhibition (enzyme test); for remaining activity at 10 µM: 10 μM compound, read-out: % Control at 10 μM
Protocol: Autotaxin Inhibition (Enzyme Test)
Autotaxin Test (Enzyme Test)
The autotaxin activity is measured indirectly using Amplex Red reagent. Amplex Red is measured here as fluorogenic indicator for the H2O2 formed. In detail, autotaxin converts the substrate lysophosphatidylcholine (LPC) into phosphocholine and lysophosphatidylic acid (LPA). After this reaction, the phosphocholine is reacted with alkaline phosphatase to give inorganic phosphate and choline. In the next step, choline is oxidised by choline oxidase to give betaine, with formation of H2O2. H2O2 reacts with Amplex Red reagent in the presence of peroxidase (horseradish peroxidase) in a 1:1 stoichiometry and forms the highly fluorescent resorufin. The fluorescence is measured in a reaction-dependent kinetic mode in order that fluorescent signals from possible other fluorescent substances which are not involved in the reaction can be corrected out.
3 μl of a standard solution or of the test substances (substances with the name A(n)) in individual concentrations dissolved in 20 mM Hepes pH 7.2 with a maximum of 11% of DMSO are pre-incubated together with 20 μl (19 ng) of highly purified recombinant autotaxin in test buffer in a black microtitre plate provided with 384 wells at 22° C. for 30 min. The reaction is then initiated by addition of 10 μl of L-α-lysophosphatidylcholine (LPC), where the final concentration of LPC is 75 μM. The mixture is incubated at 37° C. for 90 min. After the incubation, Amplex Red reagent, peroxidase (horseradish peroxidase) and choline oxidase is added, and the fluorescence is immediately measured at 612 nm with excitation of 485 nm in a “Tecan Ultra multimode” reader. The activity of autotaxin is calculated indirectly via detection of the H2O2 formed.
• Microtitre plate: PS microplate, 384 wells, small volume, black Corning, Cat#3677 • Protein: recombinant autotaxin (Baculovirale Hi5 Expression) • Substrate: L-α-lysophosphatidylcholine (chicken egg)); Avanti Polar Lipids #830071 P • Standard: C14 LPA, Avanti Polar Lipids, Cat#857120P • Detection reagent: Amplex Red reagent; Invitrogen #A12222; 5 mg dissolved in 1.923 ml of DMSO peroxidase type VI-A (horseradish) from Sigma #P6782; 5 mg dissolved in 7.45 ml of test buffer, choline oxidase; Sigma # C5896; 50 U dissolved in 2.47 ml of test buffer • Detection reagent mix: 1:50 dilution of detection reagent in test buffer • Test buffer: 10 mM Tris HCl, Merck, Cat #1.08219, pH 8, 1 mM; CaCl2×2 H2O, Merck #1.02382

Question: How did the remaining activity at 10 µM turn out when `O=C1Nc2ccc(-c3ccc(Cl)cc3)cc2C(=O)N2CCN(C(=O)[C@@H](O)C3CCCCC3)CC12` (stereo partly drawn) [Compound A113, 7-(4-Chlorophenyl)-2-((S)-2-cyclohexyl-2-hydroxy-acetyl)-1,3,4,11a-tetrahydro-2H,10H-2,4a,10-triazadibenzo[a,d]cycloheptene-5,11-dione] was run?
Answer: The remaining activity at 10 µM was -6%.

Question: What about the IC50 of the same compound?
Answer: Its IC50 is over 1 µM.

Question: `O=C1Nc2ccc(-c3ccccc3F)cc2C(=O)N2CCN(C(=O)[C@@H]3CSCN3)CC12` (stereo partly drawn) [Compound A12, 7-(2-Fluorophenyl)-2-((R)-thiazolidine-4-carbonyl)-1,3,4,11a-tetrahydro-2H,10H-2,4a,10-triaza-dibenzo[a,d]cycloheptene-5,11-dione] was tested. Which IC50 did it give?
Answer: The IC50 was over 1 µM.

Question: For `O=C1Nc2ccc(-c3ccc(Cl)cc3F)cc2C(=O)N2CCN(C(=O)CC3CC3)CC12` (stereo not drawn) [Compound A28, 7-(4-Chloro-2-fluorophenyl)-2-(2-cyclopropylacetyl)-1,3,4,11a-tetrahydro-2H,10H-2,4a,10-triaza-dibenzo[a,d]cycloheptene-5,11-dione], which remaining activity at 10 µM is on record?
Answer: The remaining activity at 10 µM was 4%.

Question: And the IC50?
Answer: Its IC50 is over 1 µM.

Question: Which results are given for `O=C([C@@H]1CCCN1C1CCNCC1)N1CCN2C(=O)c3cc(-c4ccc(Cl)cc4F)ccc3N(CCO)C(=O)[C@H]2C1` [Compound A159]?
Answer: remaining activity at 10 µM: 16%; IC50: > 1 µM

Question: What does the source list for `Cc1cccc(C(O)C(=O)N2CCN3C(=O)c4cc(-c5ccc(Cl)cc5)ccc4NC(=O)C3C2)c1` (stereo not drawn) [Compound A44, 7-(4-Chlorophenyl)-2-(2-hydroxy-2-m-tolylacetyl)-1,3,4,11a-tetrahydro-2H,10H-2,4a,10-triaza-dibenzo[a,d]cycloheptene-5,11-dione]?
Answer: remaining activity at 10 µM: 48%; IC50: > 1 µM

Question: For `O=C1Nc2ccc(-c3ccc(Cl)cc3)cc2C(=O)N2CCN(C(=O)COc3ccccc3)C[C@H]12` [Compound B21], which remaining activity at 10 µM is on record?
Answer: The remaining activity at 10 µM was 57%.

Question: What does the source list for `CC(C)(C)[C@H](O)C(=O)N1CCN2Cc3cc(-c4ccc(Cl)cc4)ccc3NC(=O)C2C1` (stereo partly drawn) [Compound 57, 7-(4-Chlorophenyl)-2-((S)-2-hydroxy-3,3-dimethylbutyryl)-1,3,4,5,10,11a-hexahydro-1H-2,4a,10-triazadibenzo[a,d]cyclohepten-11-one]?
Answer: remaining activity at 10 µM: 40%; IC50: > 1 µM

Question: `COC(C(=O)N1CCN2C(=O)c3cc(-c4ccc(Cl)cc4)ccc3NC(=O)C2C1)c1ccccc1` (stereo not drawn) [Compound A42, 7-(4-Chlorophenyl)-2-(2-methoxy-2-phenylacetyl)-1,3,4,11a-tetrahydro-2H,10H-2,4a,10-triaza-dibenzo[a,d]cycloheptene-5,11-dione] was tested. Which remaining activity at 10 µM did it give?
Answer: Its remaining activity at 10 µM is 12%.

Question: What about the IC50 of the same compound?
Answer: The IC50 was over 1 µM.

Question: With `O=C1Nc2ccc(-c3ccc(Cl)cc3)cc2C(=O)N2CCN(C(=O)c3ccccn3)CC12` (stereo not drawn) [Compound A51, 7-(4-Chlorophenyl)-2-(pyridine-2-carbonyl)-1,3,4,11a-tetrahydro-2H,10H-2,4a,10-triaza-dibenzo[a,d]cycloheptene-5,11-dione] as the compound, how does the remaining activity at 10 µM read?
Answer: Its remaining activity at 10 µM is 37%.

Question: And the IC50?
Answer: Its IC50 is over 1 µM.

Question: What does the source list for `CC(C)(C)CC(=O)N1CCN2C(=O)c3cc(OC(F)(F)F)ccc3NC(=O)C2C1` (stereo not drawn) [Compound A133, 2-(3,3-Dimethylbutyryl)-7-trifluoromethoxy-1,3,4,11a-tetrahydro-2H,10H-2,4a,10-triaza-dibenzo[a,d]cycloheptene-5,11-dione]?
Answer: remaining activity at 10 µM: 27%; IC50: > 1 µM

Question: For `O=C1Nc2ccc(-c3ccco3)cc2C(=O)N2CCN(C(=O)CO)C[C@H]12` [Compound A6, (R)-7-Furan-2-yl-2-(2-hydroxyacetyl)-1,3,4,11a-tetrahydro-2H,10H-2,4a,10-triazadibenzo[a,d]-cycloheptene-5,11-dione], which remaining activity at 10 µM is on record?
Answer: Its remaining activity at 10 µM is 73%.

Question: Which results are given for `CC(C)(C)CC(=O)N1CCN2C(=O)c3cc(-c4ccc(Cl)cc4F)ccc3N(CCO)C(=O)[C@H]2C1` [Compound A152]?
Answer: remaining activity at 10 µM: 3%; IC50: 0.1 to 1 µM

Question: How did the remaining activity at 10 µM turn out when `CC(C)CS(=O)(=O)N1CCN2C(=O)c3cc(-c4ccc(Cl)cc4F)ccc3NC(=O)[C@H]2C1` [Compound A173] was run?
Answer: The remaining activity at 10 µM was 1%.

Question: What about the IC50 of the same compound?
Answer: The IC50 was 0.1 to 1 µM.

Question: `CC(C)(C)CC(=O)N1CCN2C(=O)c3cc(-c4ccc(Cl)cc4F)ccc3NC(=O)[C@H]2C1` [Compound A100, (R)-7-(4-Chloro-2-fluorophenyl)-2-(3,3-dimethyl-butyryl)-1,3,4,11a-tetrahydro-2H,10H-2,4a,10-triazadibenzo[a,d]cycloheptene-5,11-dione] was tested. Which remaining activity at 10 µM did it give?
Answer: The remaining activity at 10 µM was 11%.

Question: What about the IC50 of the same compound?
Answer: The IC50 was over 1 µM.

Question: For `O=C1Nc2ccc(-c3cccc(C(F)(F)F)c3)cc2C(=O)N2CCN(C(=O)c3ccccc3)C[C@H]12` [Compound B11], which remaining activity at 10 µM is on record?
Answer: The remaining activity at 10 µM was 85%.

Question: How did the remaining activity at 10 µM turn out when `O=C(O)CCC(=O)N1CCN2C(=O)c3cc(-c4ccc(Cl)cc4)ccc3NC(=O)[C@@H]2C1` [Compound B4] was run?
Answer: Its remaining activity at 10 µM is 71%.

Question: Which remaining activity at 10 µM does the source give for `CC(C)(C)CC(=O)N1CCN2C(=O)c3cc(-c4ccc(C#N)cc4)ccc3NC(=O)C2C1` (stereo not drawn) [Compound A132, 4-[2-(3,3-Dimethylbutyryl)-5,11-dioxo-1,2,3,4,5,10,11,11a-octahydro-2,4a,10-triaza-dibenzo[a,d]cyclohepten-7-yl]benzonitrile] here?
Answer: Its remaining activity at 10 µM is 84%.

Question: `O=C1Nc2ccc(-c3ccccc3)cc2C(=O)N2CCN(C(=O)C3CCCC3)C[C@@H]12` [Compound B6] was tested. Which remaining activity at 10 µM did it give?
Answer: The remaining activity at 10 µM was 85%.

Question: For `O=C1Nc2ccc(-c3ccc(Cl)cc3)cc2C(=O)N2CCN(C(=O)C3(c4ccc(Cl)cc4)CC3)CC12` (stereo not drawn) [Compound A47, 7-(4-Chlorophenyl)-2-[1-(4-chlorophenyl)-cyclopropanecarbonyl]-1,3,4,11a-tetrahydro-2H,10H-2,4a,10-triazadibenzo[a,d]cycloheptene-5,11-dione], which IC50 is on record?
Answer: The IC50 was over 1 µM.

Question: What does the source list for `O=C1Nc2ccc(-c3ccc(Cl)cc3)cc2C(=O)N2CCN(C(=O)C3CCCCC3)C[C@H]12` [Compound B17]?
Answer: remaining activity at 10 µM: 26%; IC50: > 1 µM

Question: Which remaining activity at 10 µM does the source give for `Cc1ccc(-c2ccc3c(c2)C(=O)N2CCN(C(=O)CC(C)(C)C)CC2C(=O)N3)c(C)c1` (stereo not drawn) [Compound A86, 2-(3,3-Dimethylbutyryl)-7-(2,4-dimethylphenyl)-1,3,4,11a-tetrahydro-2H,10H-2,4a,10-triaza-dibenzo[a,d]cycloheptene-5,11-dione] here?
Answer: The remaining activity at 10 µM was 78%.

Question: Which remaining activity at 10 µM does the source give for `O=C1Nc2ccc(-c3ccccc3)cc2C(=O)N2CCN(C(=O)[C@@H]3CSCN3)C[C@H]12` [Compound B18] here?
Answer: Its remaining activity at 10 µM is 56%.

Question: What does the source list for `O=C1Nc2ccc(-c3ccc(Cl)cc3F)cc2C(=O)N2CCN(C(=O)[C@@H]3C[C@@H](O)CN3)CC12` (stereo partly drawn) [Compound A70, 7-(4-Chloro-2-fluorophenyl)-2-((2S,4R)-4-hydroxy-pyrrolidine-2-carbonyl)-1,3,4,11a-tetrahydro-2H,10H-2,4a,10-triazadibenzo[a,d]cycloheptene-5,11-dione]?
Answer: remaining activity at 10 µM: 28%; IC50: > 1 µM

Question: Which remaining activity at 10 µM does the source give for `O=C1Nc2ccc(-c3ccccc3F)cc2C(=O)N2CCN(C(=O)c3cccs3)C[C@H]12` [Compound B23] here?
Answer: Its remaining activity at 10 µM is 76%.

Question: For `CN1CCC(C)(C(=O)N2CCN3C(=O)c4cc(-c5ccc(Cl)cc5)ccc4NC(=O)C3C2)CC1` (stereo not drawn) [Compound A107, 7-(4-Chlorophenyl)-2-(1,4-dimethylpiperidine-4-carbonyl)-1,3,4,11a-tetrahydro-2H,10H-2,4a,10-triazadibenzo[a,d]cycloheptene-5,11-dione], which remaining activity at 10 µM is on record?
Answer: Its remaining activity at 10 µM is 51%.

Question: And the IC50?
Answer: The IC50 was over 1 µM.

Question: Which remaining activity at 10 µM does the source give for `CC(C)(C)[C@H](N)C(=O)N1CCN2C(=O)c3cc(-c4ccc(Cl)cc4)ccc3NC(=O)[C@@H]2C1` [Compound A80, (S)-2-((S)-2-Amino-3,3-dimethylbutyryl)-7-(4-chloro-phenyl)-1,3,4,11a-tetrahydro-2H,10H-2,4a,10-triaza-dibenzo[a,d]cycloheptene-5,11-dione] here?
Answer: Its remaining activity at 10 µM is 44%.

Question: Which remaining activity at 10 µM does the source give for `O=C1Nc2ccc(-c3ccc4c(c3)OCO4)cc2C(=O)N2CCN(C(=O)c3cccnc3)C[C@H]12` [Compound B12] here?
Answer: Its remaining activity at 10 µM is 84%.

Question: Which results are given for `Cc1ccc(-c2ccc3c(c2)C(=O)N2CCN(C(=O)[C@@H]4CCCN4C4CCNCC4)C[C@@H]2C(=O)N3)c(F)c1F` [Compound A101, (R)-7-(2,3-Difluoro-4-methylphenyl)-2-((S)-1-piperidin-4-ylpyrrolidine-2-carbonyl)-1,3,4,11a-tetrahydro-2H,10H-2,4a,10-triaza-dibenzo[a,d]cycloheptene-5,11-dione]?
Answer: remaining activity at 10 µM: 8%; IC50: 0.1 to 1 µM

Question: What does the source list for `Cn1cc(CCC(=O)N2CCN3C(=O)c4cc(-c5ccc(Cl)cc5F)ccc4NC(=O)C3C2)cn1` (stereo not drawn) [Compound A95, 7-(4-Chloro-2-fluorophenyl)-2-[3-(1-methyl-1H-pyrazol-4-yl)propionyl]-1,3,4,11a-tetrahydro-2H,10H-2,4a,10-triazadibenzo[a,d]cycloheptene-5,11-dione]?
Answer: remaining activity at 10 µM: 15%; IC50: > 1 µM
